Experimental data as given in ChEMBL document CHEMBL3414522, “Design, synthesis, and biological evaluation of novel matrix metalloproteinase inhibitors as potent antihemorrhagic agents: from hit identification to an optimized lead” (J Med Chem, 2015).

Tests used:
in vitro [1] = settings: human, liver microsomes
in vitro [2] = settings: mouse, liver microsomes
in vitro [3] = settings: rat, liver microsomes
[4] = Apparent permeability from apical to basolateral side in human Caco2 cells at 2 uM after 120 mins by LC-MS/MS analysis; format: ADME, cell-based; settings: caco-2, 2 h

remaining at 20 min, 1 µM (in vitro [1]) | remaining at 20 min, 1 µM (in vitro [2]) | remaining at 20 min, 1 µM (in vitro [3]) | Papp [4] | SMILES
91.1% | 97.5% | 99.8% |  | CNC(=O)c1ccc(Oc2ccc(S(=O)(=O)C3(C(=O)NO)CCC4(CCNCC4)C3)cc2)cc1 (centres undefined)
92.1% | 87.2% | 95.6% |  | O=C(NO)C1(S(=O)(=O)c2ccc(Oc3ccc(OC(F)(F)F)cc3)cc2)CCC2(CCNCC2)C1 (centres undefined)
93.5% | 98% | 98.1% | 0.00016 ×10⁻⁶ cm/s | CNC(=O)c1ccc(Oc2ccc(S(=O)(=O)[C@]3(C(=O)NO)CCC4(CCNCC4)C3)cc2)cc1
97% | 89.6% | 97.4% | 0.00059 ×10⁻⁶ cm/s | CNC(=O)c1ccc(Oc2ccc(S(=O)(=O)[C@@]3(C(=O)NO)CCC4(CCNCC4)C3)cc2)cc1
